From ChEMBL document CHEMBL1201862, “PubChem BioAssay data set” (2004)
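Where inhibition never reached the appropriate level, the endpoint shown equals the highest concentration tested. Otherwise, values were interpolated linearly from a five-concentration, 48-hour dose response in 96-well plates. GI50: concentration for 50% inhibition of growth.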 Calls of active or inactive are those of the source. No stated cut-off is given here; in the data, active = GI50 up to about 1.1 µM and inactive = higher.

Legend:
Experiment in all cases: NCI-60 cell line screen, 48 h
[1] = tested on: SK-OV-3
[2] = tested on: SK-MEL-2
[3] = tested on: MOLT-4
[4] = tested on: EKVX
[5] = tested on: UACC-257
[6] = tested on: SF-539
[7] = tested on: UO-31
[8] = tested on: U-251
[9] = tested on: A549
[10] = tested on: OVCAR-4
[11] = tested on: HOP-62
[12] = tested on: M14
[13] = tested on: A498
[14] = tested on: UACC-62
[15] = tested on: SK-MEL-5
[16] = tested on: SN12C
[17] = tested on: SNB-75

Measured: GI50

CCC1C(=O)OCc2c1cc1n(c2=O)C(CC)c2c-1nc1ccccc1c2Cl (stereo unspecified)
inactive: [1] 33.9 µM | [2] 21 µM | [3] 10.4 µM | [4] 25.2 µM | [5] 29.6 µM | [6] 17.3 µM | [7] 23.9 µM | [8] 19.3 µM | [9] 26.7 µM | [10] 22.4 µM | [11] 20.7 µM | [12] 33.7 µM | [13] 21.9 µM | [14] 18.2 µM | [15] 16.7 µM

CCOc1ccc(NC(=O)CC2SC(N)=NC2=O)cc1 (stereo unspecified)
inactive: [2] > 100 µM | [3] > 100 µM | [4] > 100 µM | [16] > 100 µM | [5] > 100 µM | [7] > 100 µM | [8] > 100 µM | [9] > 100 µM | [10] > 100 µM | [11] > 100 µM | [12] > 100 µM | [17] > 100 µM | [14] > 100 µM | [15] > 100 µM

C[N+](C)(C)C.FC(F)(F)C1(C(F)(F)F)O[SiH-]2(OC(C(F)(F)F)(C(F)(F)F)c3ccccc32)c2ccccc21
inactive: [2] 17.7 µM | [3] 11.7 µM | [4] 14.2 µM | [16] 18.1 µM | [5] 24.4 µM | [6] 11.9 µM | [7] 14.6 µM | [8] 5.4 µM | [9] 10 µM | [10] 6.47 µM | [12] 10 µM

CCNC(C)Cc1ccccc1 (stereo unspecified)
inactive: [1] > 100 µM | [2] > 100 µM | [4] > 100 µM | [16] > 100 µM | [5] > 100 µM | [6] > 100 µM | [7] > 100 µM | [8] > 100 µM | [9] > 100 µM | [10] > 100 µM | [11] > 100 µM | [12] > 100 µM | [17] 6.71 µM | [13] > 100 µM | [14] > 100 µM | [15] > 100 µM

COC(=O)c1nc(N)nc(C(=O)OC)c1C(=O)c1ccccc1
inactive: [1] > 100 µM | [2] > 100 µM | [3] > 100 µM | [4] > 100 µM | [16] > 100 µM | [5] > 100 µM | [6] > 100 µM | [7] > 100 µM | [8] > 100 µM | [9] > 100 µM | [12] > 100 µM | [17] 54.1 µM | [13] > 100 µM | [14] > 100 µM | [15] > 100 µM

COc1ccc(OC(C(=O)O)C(C)C)c2c1CCCC2=O (stereo unspecified)
inactive: [1] > 100 µM | [2] > 100 µM | [3] > 100 µM | [4] > 100 µM | [16] > 100 µM | [5] > 100 µM | [6] > 100 µM | [7] > 100 µM | [8] > 100 µM | [9] > 100 µM | [10] > 100 µM | [11] > 100 µM | [12] > 100 µM | [13] > 100 µM | [14] > 100 µM | [15] > 100 µM

CC(=O)OC12c3ccccc3C1CCCC21OCCCO1 (stereo unspecified)
inactive: [1] > 100 µM | [2] > 100 µM | [3] > 100 µM | [4] > 100 µM | [16] > 100 µM | [5] > 100 µM | [6] > 100 µM | [7] > 100 µM | [8] > 100 µM | [9] > 100 µM | [10] > 100 µM | [11] > 100 µM | [12] > 100 µM | [17] 37.5 µM | [13] > 100 µM | [14] > 100 µM

CC1=CC(C)(C)N=C2SC(c3ccc(N)cc3)=NN12
inactive: [1] > 100 µM | [3] 42.2 µM | [4] 24.9 µM | [16] > 95.9 µM | [5] > 94 µM | [6] > 100 µM | [7] 28 µM | [8] 59.8 µM | [9] 51.9 µM | [10] > 93.8 µM | [11] > 100 µM | [12] > 83.8 µM | [17] > 52.5 µM | [13] 63.4 µM | [14] 44.6 µM | [15] 70.3 µM

CC1=C2O[B-](c3ccccc3)(c3ccccc3)[O+]=C2C=CN1
inactive: [1] > 100 µM | [3] 20.2 µM | [4] 28.8 µM | [16] 45.7 µM | [5] 27.7 µM | [7] 4.46 µM | [8] 55.6 µM | [9] 58.3 µM | [10] 64.7 µM | [11] 25.9 µM | [12] 40 µM | [17] 22.8 µM | [14] 21.2 µM | [15] 21.5 µM

CN/N=C(/Cc1occc(=O)c1O)C(=O)Nc1ccc(C)c(C)c1
inactive: [1] > 100 µM | [2] > 100 µM | [3] > 100 µM | [4] > 100 µM | [16] > 100 µM | [5] > 100 µM | [6] > 100 µM | [7] > 100 µM | [8] > 100 µM | [9] > 100 µM | [10] > 100 µM | [11] > 100 µM | [12] > 100 µM | [13] > 100 µM | [14] > 100 µM | [15] > 100 µM

CN(Cc1ccccc1)C(=NC#N)N(C)Cc1ccccc1
inactive: [1] > 100 µM | [2] > 100 µM | [4] > 100 µM | [16] > 100 µM | [5] > 100 µM | [6] > 100 µM | [7] > 100 µM | [8] > 100 µM | [9] > 100 µM | [10] > 100 µM | [11] > 100 µM | [12] > 100 µM | [14] > 100 µM | [15] > 100 µM

O=C1NC(=O)C2C(=O)NC(=O)C1C2(c1ccccc1)c1ccc(Cl)cc1 (stereo unspecified)
inactive: [1] > 100 µM | [2] > 100 µM | [3] > 100 µM | [4] > 100 µM | [16] > 100 µM | [5] > 100 µM | [6] > 100 µM | [7] > 100 µM | [9] > 100 µM | [10] > 100 µM | [11] > 100 µM | [12] > 100 µM | [17] > 100 µM | [13] > 100 µM | [14] > 100 µM | [15] > 100 µM

CC1=NOC(=O)C1/N=N/c1ccc(Br)c(C)c1 (stereo unspecified)
inactive: [1] 34.8 µM | [2] 16.3 µM | [3] 18.4 µM | [4] 18 µM | [16] 18.2 µM | [5] 17.5 µM | [6] 20.2 µM | [8] 18.5 µM | [9] 20.3 µM | [10] 15.2 µM | [11] 22.3 µM | [12] 20.5 µM | [17] 30.5 µM | [13] 21.4 µM | [14] 19.3 µM | [15] 12.7 µM

NC12CC3CC(C1)CC(Cl)(C3)C2
inactive: [1] > 100 µM | [2] > 100 µM | [3] > 100 µM | [4] > 100 µM | [5] > 100 µM | [6] > 100 µM | [7] > 100 µM | [8] > 100 µM | [9] > 100 µM | [11] > 100 µM | [12] > 100 µM | [17] > 100 µM | [13] > 100 µM | [14] > 100 µM

Cc1ccc(S(=O)(=O)NCC2CCCCC2=O)cc1 (stereo unspecified)
inactive: [1] > 100 µM | [2] > 100 µM | [3] 49.7 µM | [4] > 100 µM | [16] > 100 µM | [5] 16.4 µM | [6] > 100 µM | [7] 57.3 µM | [8] > 100 µM | [9] > 100 µM | [10] 69.3 µM | [12] > 100 µM | [17] 22.9 µM | [13] > 100 µM | [14] 66.5 µM | [15] 82.4 µM

CC(=O)OCC1OC(n2cc([N+](=O)[O-])c(=O)[nH]c2=O)C(OC(C)=O)C(OC(C)=O)C1OC(C)=O (stereo unspecified)
inactive: [1] > 100 µM | [2] > 100 µM | [3] > 100 µM | [4] > 100 µM | [16] > 100 µM | [5] > 100 µM | [7] > 100 µM | [8] > 100 µM | [9] > 100 µM | [10] > 100 µM | [11] > 100 µM | [12] > 100 µM | [17] 54.6 µM | [13] > 100 µM | [14] > 100 µM | [15] > 100 µM

COc1ccc2c(c1)[n+]([O-])c(-c1c(Cl)cccc1Cl)c(N)[n+]2[O-]
inactive: [1] > 100 µM | [2] 26 µM | [3] 75.3 µM | [4] 61.5 µM | [16] 46.1 µM | [5] 23.4 µM | [7] 85.3 µM | [8] 37.9 µM | [9] 45.2 µM | [10] 71.8 µM | [12] 31.5 µM | [17] > 100 µM | [13] > 100 µM | [14] 37.7 µM | [15] 22.9 µM

C=C1C(=O)C23C(O)CC4C5(C)CCCC4(C(O)OC5)C2C(OC(C)=O)CC1C3O (stereo unspecified)
inactive: [1] 19.7 µM | [2] 13.8 µM | [3] 3.66 µM | [4] 14.6 µM | [16] 10.6 µM | [6] 10.9 µM | [7] 34.5 µM | [8] 16.6 µM | [9] 20.8 µM | [10] 14.3 µM | [11] 17.5 µM | [12] 3.41 µM | [17] 4.28 µM | [14] 6.73 µM | [15] 14.8 µM
